Measurements as given in ChEMBL document CHEMBL3872235, “Synthesis and biological evaluation of allylated mono-carbonyl analogues of curcumin (MACs) as anti-cancer agents for cholangiocarcinoma” (Bioorg Med Chem Lett, 2016).
pIC50: −log10 of the molar value.

Assays:
[1] = Cytotoxicity against RBEC assessed as cell survival at 20 uM after 24 hrs by MTT assay; type: toxicity; details: rat, RBEC cells; read-out: Survival
[2] = Cytotoxicity against RBEC assessed as decrease in cell viability after 24 hrs by MTT assay; type: toxicity; details: rat, RBEC cells
[3] = Drug degradation in phosphate buffer at pH 7.4 measured up to 25 mins by UV-Vis spectral analysis; type: physicochemical; details: for Stability: buffer, pH 7.4, 25 min
[4] = Cell cycle arrest in RBEC cells assessed as accumulation at G2/M phase at 20 uM after 24 hrs by flow cytometric analysis; type: cell-based; details: rat
[5] = Induction of apoptosis in HUCCA cells at 20 uM after 24 hrs by annexin V/propidium iodide staining based flow cytometry (reference value: 9.6%); type: functional, Homo sapiens
[6] = Increase in p53 expression in RBEC at 20 uM after 24 hrs by Western blot analysis; type: ADME; details: rat
[7] = Induction of apoptosis in human QBC939 cells at 20 uM after 24 hrs by annexin V/propidium iodide staining based flow cytometry (reference value: 2.21%); type: functional
[8] = Decrease in Cdc2 expression in RBEC at 20 uM after 24 hrs by Western blot analysis; details: rat
[9] = Induction of apoptosis in RBEC at 20 uM after 24 hrs by annexin V/propidium iodide staining based flow cytometry (reference value: 2.3%); details: rat
[10] = Induction of apoptosis in HUCCA cells at 10 uM after 24 hrs by annexin V/propidium iodide staining based flow cytometry (reference value: 9.6%); type: functional, Homo sapiens
QBC939 [11] = assay: Induction of apoptosis in human QBC939 cells assessed as increase in Bax protein expression after 24 hrs by Western blot analysis; type: functional, cell-based
[12] = Cell cycle arrest in HUCCA cells assessed as accumulation at G2/M phase after 24 hrs by flow cytometric analysis; type: functional, cell-based; details: Homo sapiens
[13] = Induction of apoptosis in human QBC939 cells at 5 uM after 24 hrs by annexin V/propidium iodide staining based flow cytometry (reference value: 2.21%); type: functional
HUCCA [14] = assay: Increase in p53 expression in HUCCA cells after 24 hrs by Western blot analysis; type: functional, cell-based; details: Homo sapiens
QBC939 [15] = assay: Induction of apoptosis in human QBC939 cells assessed as decrease in Bcl-2 protein expression after 24 hrs by Western blot analysis; type: functional, cell-based
[16] = Induction of apoptosis in RBEC assessed as decrease in Bcl-2 protein expression after 24 hrs by Western blot analysis; details: rat
HUCCA [17] = assay: Induction of apoptosis in HUCCA cells assessed as increase in Bax protein expression after 24 hrs by Western blot analysis; type: functional, cell-based; details: Homo sapiens
[18] = Induction of apoptosis in human QBC939 cells at 10 uM after 24 hrs by annexin V/propidium iodide staining based flow cytometry (reference value: 2.21%); type: functional
QBC939 [19] = assay: Increase in p53 expression in human QBC939 cells after 24 hrs by Western blot analysis; type: functional, cell-based
[20] = Cytotoxicity against HIBEC assessed as decrease in cell viability after 24 hrs by MTT assay; type: toxicity; details: human, HIBEC cells
[21] = Decrease in Cdc2 expression in RBEC after 24 hrs by Western blot analysis; type: ADME; details: rat
[22] = Induction of apoptosis in RBEC at 10 uM after 24 hrs by annexin V/propidium iodide staining based flow cytometry (reference value: 2.3%); details: rat
[23] = Cell cycle arrest in RBEC cells assessed as accumulation at G2/M phase after 24 hrs by flow cytometric analysis; type: ADME, cell-based; details: rat
[24] = Decrease in Cdc2 expression in human QBC939 cells after 24 hrs by Western blot analysis; type: functional, cell-based
QBC939 [25] = assay: Induction of apoptosis in human QBC939 cells after 24 hrs by annexin V/propidium iodide staining based flow cytometry; type: functional, cell-based
[26] = Induction of apoptosis in HUCCA cells at 5 uM after 24 hrs by annexin V/propidium iodide staining based flow cytometry (reference value: 9.6%); type: functional, Homo sapiens
[27] = Increase in p53 expression in RBEC after 24 hrs by Western blot analysis; details: rat
[28] = Induction of apoptosis in RBEC at 5 uM after 24 hrs by annexin V/propidium iodide staining based flow cytometry (reference value: 2.3%); details: rat
[29] = Cytotoxicity against human QBC939 cells assessed as decrease in cell viability after 24 hrs by MTT assay; type: functional, cell-based; details: QBC939, 24 h
HUCCA [30] = assay: Induction of apoptosis in HUCCA cells assessed as decrease in Bcl-2 protein expression after 24 hrs by Western blot analysis; type: functional, cell-based; details: Homo sapiens
[31] = Induction of apoptosis in RBEC at 7.5 uM after 24 hrs by annexin V/propidium iodide staining based flow cytometry (reference value: 2.3%); details: rat
[32] = Induction of apoptosis in HUCCA cells at 7.5 uM after 24 hrs by annexin V/propidium iodide staining based flow cytometry (reference value: 9.6%); type: functional, Homo sapiens
[33] = Induction of apoptosis in RBEC after 24 hrs by annexin V/propidium iodide staining based flow cytometry; details: rat
[34] = Induction of apoptosis in RBEC assessed as increase in Bax protein expression after 24 hrs by Western blot analysis; details: rat
[35] = Cytotoxicity against HUCCA cells assessed as decrease in cell viability after 24 hrs by MTT assay; type: functional, cell-based; details: Homo sapiens
[36] = Induction of apoptosis in human QBC939 cells at 7.5 uM after 24 hrs by annexin V/propidium iodide staining based flow cytometry (reference value: 2.21%); type: functional
HUCCA [37] = assay: Induction of apoptosis in HUCCA cells after 24 hrs by annexin V/propidium iodide staining based flow cytometry; type: functional, cell-based; details: Homo sapiens
[38] = Decrease in Cdc2 expression in HUCCA cells after 24 hrs by Western blot analysis; type: functional, cell-based; details: Homo sapiens
[39] = Cytotoxicity against human HL7702 cells assessed as decrease in cell viability after 24 hrs by MTT assay; type: functional, cell-based; details: L02, 24 h
HUCCA [40] = assay: Induction of apoptosis in HUCCA cells assessed as decrease in PARP cleavage after 24 hrs by Western blot analysis; type: functional, cell-based; details: Homo sapiens
[41] = Cell cycle arrest in human QBC939 cells assessed as accumulation at G2/M phase after 24 hrs by flow cytometric analysis; type: functional, cell-based

SMILES: C=CCc1cc(/C=C2\CCC/C(=C\c3ccc(O)c(CC=C)c3)C2=O)ccc1O
- viability at 24 h, 20 µM [1]: < 50%

SMILES: C=CCc1cc(/C=C2\CC/C(=C\c3ccc(O)c(CC=C)c3)C2=O)ccc1O
- IC50 at 24 h [2]: 10.7 µM
- Stability [3]: Stable

SMILES: COc1cc(/C=C/C(=O)CC(=O)/C=C/c2ccc(O)c(OC)c2)ccc1O [CURCUMIN]
- Activity [4]: Non-Toxic
- degraded at 25 min ([3]; phosphate buffer, pH 7.4, read-out: Drug degradation): 50%
- Activity [5]: 21.7%
- Activity [6]: Non-Toxic
- Activity [7]: 18.5%
- Activity [8]: Non-Toxic
- Activity [9]: 27.6%

SMILES: C=CCc1cc(/C=C2\CN(C(=O)c3ccccc3)C/C(=C\c3ccc(O)c(CC=C)c3)C2=O)ccc1O
- viability at 24 h, 20 µM [1]: < 50%

SMILES: C=CCc1cc(/C=C2\CNC/C(=C\c3ccc(O)c(CC=C)c3)C2=O)ccc1O
- viability at 24 h, 20 µM [1]: < 50%

SMILES: C=CCc1cc(/C=C2\CN(CCC)C/C(=C\c3cc(OC)c(OC)cc3OC)C2=O)ccc1O
- viability at 24 h, 20 µM [1]: < 50%

SMILES: C=CCc1cc(/C=C2\CSC/C(=C\c3ccc(O)c(CC=C)c3)C2=O)ccc1O
- Activity [10]: 41.6%
- Activity (QBC939 [11]): Dose-dependent effect
- IC50 at 24 h [2]: 8.1 to 8.9 µM
- Activity [12]: Dose-dependent effect
- Activity [13]: 7.6%
- Activity (HUCCA [14]): Dose-dependent effect
- Activity (QBC939 [15]): Dose-dependent effect
- viability at 24 h, 20 µM [1]: < 50%
- Stability [3]: Stable
- Activity [16]: Dose-dependent effect
- Activity (HUCCA [17]): Dose-dependent effect
- Activity [18]: 38.6%
- Activity (QBC939 [19]): Dose-dependent effect
- IC50 at 24 h [20]: 9.8 µM
- Activity [21]: Dose-dependent effect
- Activity [22]: 39.9%
- Activity [23]: Dose-dependent effect
- Activity [24]: Dose-dependent effect
- Activity (QBC939 [25]): Dose-dependent effect
- Activity [26]: 19.4%
- Activity [27]: Dose-dependent effect
- Activity [28]: 9.3%
- pIC50 [29]: 5.03
- Activity (HUCCA [30]): Dose-dependent effect
- Activity [31]: 13.9%
- Activity [32]: 31.8%
- Activity [33]: Dose-dependent effect
- Activity [34]: Dose-dependent effect
- pIC50 [35]: 5.06
- Activity [36]: 15.8%
- Activity (HUCCA [37]): Dose-dependent effect
- Activity [38]: Dose-dependent effect
- pIC50 [39]: 5.01
- Activity (HUCCA [40]): Dose-dependent effect
- Activity [41]: Dose-dependent effect

SMILES: C=CCc1cc(/C=C2\COC/C(=C\c3ccc(O)c(CC=C)c3)C2=O)ccc1O
- IC50 at 24 h [2]: 15 µM
- viability at 24 h, 20 µM [1]: < 50%
- Stability [3]: Stable

SMILES: O=c1[nH]cc(F)c(=O)[nH]1 [FLUOROURACIL]
- IC50 at 24 h [2]: 19.3 µM
- pIC50 [29]: 4.79
- pIC50 [35]: 4.87

SMILES: C=CCc1cc(/C=C2\CN(S(=O)(=O)CCC)C/C(=C\c3ccc(O)c(CC=C)c3)C2=O)ccc1O
- viability at 24 h, 20 µM [1]: < 50%

SMILES: C=CCc1cc(/C=C2\CN(C(C)C)C/C(=C\c3ccc(O)c(CC=C)c3)C2=O)ccc1O
- viability at 24 h, 20 µM [1]: < 50%

SMILES: C=CCc1cc(/C=C2\CN(C3CC3)C/C(=C\c3ccc(OC(C)(C)C)cc3)C2=O)ccc1O
- viability at 24 h, 20 µM [1]: < 50%

SMILES: C=CCc1cc(/C=C2\CN(C3CC3)C/C(=C\c3ccc(O)c(CC=C)c3)C2=O)ccc1O
- IC50 at 24 h [2]: 14.4 µM
- viability at 24 h, 20 µM [1]: < 50%
